Columns and labels:
Conditions in all cases: 72 h
[1] = test system: LAMA-84; test: cell viability (% survival relative to DMSO control, bortezomib = 0%); higher = less cytotoxic
In short: (§1)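 Seeding density for each of the 10 AML and 5 CML cell lines was titrated to the linear growth range. Cells went into 384-well plates pre-printed in duplicate with compounds at 1, 10, 100, 1000 or 10000 nM and were held for 72 h at 37 °C with 5% CO2. CellTiter-Glo luminescence then provided the readout. Percent survival is expressed relative to vehicle at 100% and a 10 µM positive control at 0%, averaged over duplicates.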

[2] = test system: NOMO-1; test: as above
In short: as §1

[3] = test system: SHI-1; test: as above
In short: as §1

[4] = test system: KCL-22; test: as above
In short: as §1

[5] = test system: HEL; test: as above
In short: as §1

[6] = test system: KU-812; test: as above
In short: as §1

[7] = test system: MOLM-13; test: as above
In short: as §1

[8] = test system: Mono-Mac-6; test: as above
In short: as §1

[9] = test system: THP-1; test: as above
In short: as §1

[10] = test system: KG-1; test: as above
In short: as §1

[11] = test system: K-562; test: as above
In short: as §1

[12] = test system: ML-2; test: as above
In short: as §1

[13] = test system: BV-173; test: as above
In short: as §1

[14] = test system: HL-60; test: as above
In short: as §1

[15] = test system: MV4-11; test: as above
In short: as §1

[16] = test system: MV4-11
In short: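 Fifteen myeloid leukaemia lines were incubated for 72 h at 37 °C with 5% CO2 across five tenfold doses from 1 to 10,000 nM, in duplicate. ATP luminescence was normalised to vehicle and to a positive control at 10 µM and fitted with a four-parameter log-logistic model. The IC50 came from these dose–response fits.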

[17] = test system: HL-60; test: cell viability (% survival relative to DMSO control); higher = less cytotoxic
In short: (§2)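 HL-60 cells in RPMI 1640 with 10% FBS were rescreened against the full library on 384-well plates at five tenfold concentrations, 1–10,000 nM, in duplicate. Each screen was run with DMSO or 100 nM of one of three metabolic inhibitors, for 72 h at 37 °C, 5% CO2. Viability was read by CellTiter-Glo and normalised to DMSO and 10 μM proteasome-inhibitor wells. Where given, area under the curve came from four-parameter log-logistic fits (drc, PharmacoGx).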

[18] = test system: HL-60; test: area under dose-response curve (viability, 1 nM-10 uM) (fraction (0-1)); higher = more sensitive
In short: as §2

NCc1ccc(S(N)(=O)=O)cc1 [4-Homosulfanilamide]
Conditions | area under dose-response curve, co-treatment: AZD3965 100 nM | area under dose-response curve, co-treatment: DMSO vehicle | area under dose-response curve, co-treatment: GSK2194069 100 nM | area under dose-response curve, co-treatment: pictilisib 100 nM | cell viability, 1 nM [%] | cell viability, 10 nM [%] | cell viability, 100 nM [%] | cell viability, 1000 nM [%] | cell viability, 10000 nM [%]
[1] | – | – | – | – | 99.5 | 97.7 | 94.7 | 99.3 | 100
[2] | – | – | – | – | 97 | 96.1 | 98.3 | 99.8 | 100
[3] | – | – | – | – | 96.8 | 107 | 104 | 102 | 111
[4] | – | – | – | – | 99.7 | 107 | 103 | 103 | 106
[5] | – | – | – | – | 94.2 | 71.2 | 99.3 | 98 | 106
[6] | – | – | – | – | 97.9 | 93.1 | 96.3 | 100 | 98.1
[7] | – | – | – | – | 80.7 | 93.2 | 87.3 | 80 | 105
[8] | – | – | – | – | 107 | 101 | 106 | 96 | 92.3
[9] | – | – | – | – | 98.5 | 92.5 | 105 | 96.2 | 99.5
[10] | – | – | – | – | 91.4 | 96 | 97.7 | 99.1 | 96.6
[11] | – | – | – | – | 85.1 | 90 | 87.5 | 104 | 102
[12] | – | – | – | – | 90.9 | 92.3 | 94.7 | 91.8 | 102
[13] | – | – | – | – | 96.7 | 85.9 | 91.7 | 96.6 | 97.6
[14] | – | – | – | – | 88.1 | 97 | 109 | 82.1 | 110
[15] | – | – | – | – | 93.9 | 87.5 | 90.2 | 89.9 | 106
[18] | < 0.0301 | < 0.0301 | < 0.0301 | < 0.0301 | – | – | – | – | –

Conditions | IC50 (cell viability) [nM]
[16] | > 10000

cell viability [%], [17]
Conditions | 0.001 µM | 0.01 µM | 0.1 µM | 1 µM | 10 µM
co-treatment: AZD3965 100 nM | 102 | 106 | 99.06 | 95.9 | 99.2
co-treatment: DMSO vehicle | 103.6 | 105 | 100 | 101 | 96.4
co-treatment: GSK2194069 100 nM | 101 | 103 | 98.5 | 96.9 | 97.5
co-treatment: pictilisib 100 nM | 98.6 | 107 | 97.5 | 95.5 | 98.3

NS(=O)(=O)c1ccc(S(=O)(=O)Nc2cccc3c(Cl)c[nH]c23)cc1 [Indisulam]
Conditions | area under dose-response curve, co-treatment: AZD3965 100 nM | area under dose-response curve, co-treatment: DMSO vehicle | area under dose-response curve, co-treatment: GSK2194069 100 nM | area under dose-response curve, co-treatment: pictilisib 100 nM | cell viability, 1 nM [%] | cell viability, 10 nM [%] | cell viability, 100 nM [%] | cell viability, 1000 nM [%] | cell viability, 10000 nM [%]
[1] | – | – | – | – | 94.3 | 89 | 111 | 55.2 | 21.9
[2] | – | – | – | – | 102 | 98.4 | 105 | 63.2 | 24.8
[3] | – | – | – | – | 96.8 | 101 | 97.4 | 65.2 | 26.8
[4] | – | – | – | – | 102 | 104 | 87.4 | 58.6 | 19
[5] | – | – | – | – | 103 | 98.1 | 95.8 | 95.9 | 34.7
[6] | – | – | – | – | 102 | 99.1 | 108 | 29.9 | 13.7
[7] | – | – | – | – | 122 | 102 | 97.8 | 32.6 | 7.24
[8] | – | – | – | – | 101 | 95.3 | 80.3 | 48.2 | 11.1
[9] | – | – | – | – | 103 | 94.5 | 112 | 94.3 | 71.1
[10] | – | – | – | – | 139 | 129 | 173 | 50.5 | 15.5
[11] | – | – | – | – | 113 | 101 | 89.2 | 65.4 | 36.7
[12] | – | – | – | – | 99.1 | 104 | 97.9 | 35.2 | 3.51
[13] | – | – | – | – | 108 | 87.3 | 110 | 46.6 | 9.34
[14] | – | – | – | – | 107 | 107 | 85.8 | 97.2 | 37.1
[15] | – | – | – | – | 99.4 | 84.3 | 56.2 | 0.62 | 0.0378
[18] | < 0.0301 | < 0.0301 | < 0.0301 | < 0.0301 | – | – | – | – | –

Conditions | IC50 (cell viability) [nM]
[16] | 128

cell viability [%], [17]
Conditions | 0.001 µM | 0.01 µM | 0.1 µM | 1 µM | 10 µM
co-treatment: AZD3965 100 nM | 97.4 | 97.92 | 98.8 | 110 | 89.8
co-treatment: DMSO vehicle | 96.4 | 95 | 101 | 104 | 92.2
co-treatment: GSK2194069 100 nM | 101 | 101 | 100 | 105 | 90.9
co-treatment: pictilisib 100 nM | 110 | 95.2 | 104 | 112.7 | 77.3

Reference: the supplement of paper PMC8671470
